With `CCOC(=O)Cc1ccc(-c2nc(COc3ccc(COc4nn(-c5ccccc5)cc4/C=C/c4cncn4CC)cc3OC)c(C)o2)cc1` [Example 340, ethyl {4-[4-({4-[({4-[(E)-2-(1-ethyl-1H-imidazol-5-yl)ethenyl]-1-phenyl-1H-pyrazol-3-yl}oxy)methyl]-2-methoxyphenoxy)methyl)-5-methyl-1,3-oxazol-2-yl]phenyl}acetate] the melting point was 134 to 135 °C.
`CCOC(=O)Cc1ccc(-c2nc(COc3ccc(COc4nn(-c5ccccc5)cc4/C=C\c4cncn4CC)cc3OC)c(C)o2)cc1` [Example 340, ethyl {4-[4-({4-[({4-[(Z)-2-(1-ethyl-1H-imidazol-5-yl)ethenyl]-1-phenyl-1H-pyrazol-3-yl}oxy)methyl]-2-methoxyphenoxy}methyl)-5-methyl-1,3-oxazol-2-yl]phenyl}acetate] showed a melting point of 85 to 86 °C.
With `CCOC(=O)Cc1ccc(-c2nc(COc3ccc(COc4nn(-c5ccccc5)cc4/C=C/c4cn(CC)cn4)cc3OC)c(C)o2)cc1` [Example 343, ethyl (4-{4-[(4-[({4-[(E)-2-(1-ethyl-1H-imidazol-4-yl)ethenyl]-1-phenyl-1H-pyrazol-3-yl}oxy)methyl]-2-methoxyphenoxy)methyl]-5-methyl-1,3-oxazol-2-yl}phenyl)acetate] the melting point was 140 to 141 °C.
`CCOC(=O)Cc1ccc(-c2nc(COc3ccc(COc4nn(-c5ccccc5)cc4/C=C\c4cnn(CC)c4)cc3OC)c(C)o2)cc1` [Example 346, ethyl {4-[4-({4-[({4-[(Z)-2-(1-ethyl-1H-pyrazol-4-yl)ethenyl]-1-phenyl-1H-pyrazol-3-yl}oxy)methyl]-2-methoxyphenoxy}methyl)-5-methyl-1,3-oxazol-2-yl]phenyl}acetate] showed a melting point of 140 to 141 °C.
With `COc1cc(CN(C)c2nn(-c3ccccc3)cc2C=O)ccc1OCc1nc(-c2ccco2)oc1C` [Example 349, 3-([4-{[2-(2-furyl)-5-methyl-1,3-oxazol-4-yl]methoxy}-3-methoxybenzyl](methyl)amino)-1-phenyl-1H-pyrazole-4-carbaldehyde] the melting point was 101 to 102 °C.
In the case of `CCOC(=O)Cc1ccc(-c2nc(COc3ccc(COc4nn(-c5ccccc5)cc4/C=C/c4csc(C)n4)cc3OC)c(C)o2)cc1` [Example 356, ethyl {4-[4-({2-methoxy-4-[({4-[(E)-2-(2-methyl-1,3-thiazol-4-yl)ethenyl]-1-phenyl-1H-pyrazol-3-yl}oxy)methyl]phenoxy}methyl)-5-methyl-1,3-oxazol-2-yl]phenyl}acetate], the melting point is reported as 153 to 155 °C.
In the case of `CCOC(=O)Cc1ccc(-c2nc(COc3ccc(COc4nn(-c5ccccc5)cc4/C=C/c4csc(C(C)C)n4)cc3OC)c(C)o2)cc1` [Example 360, ethyl {4-[4-({4-[({4-[(E)-2-(2-isopropyl-1,3-thiazol-4-yl)ethenyl]-1-phenyl-1H-pyrazol-3-yl}oxy)methyl]-2-methoxyphenoxy}methyl)-5-methyl-1,3-oxazol-2-yl]phenyl}acetate], the melting point is reported as 89 to 90 °C.
In the case of `CCOC(=O)Cc1ccc(-c2nc(COc3ccc(COc4nn(-c5ccccc5)cc4/C=C\c4csc(C(C)C)n4)cc3OC)c(C)o2)cc1` [Example 360, ethyl {4-[4-({4-[({4-[(Z)-2-(2-isopropyl-1,3-thiazol-4-yl)ethenyl]-1-phenyl-1H-pyrazol-3-yl}oxy)methyl]-2-methoxyphenoxy}methyl)-5-methyl-1,3-oxazol-2-yl]phenyl}acetate], the melting point is reported as 126 to 127 °C.
`COc1cc(COc2nn(-c3ccccc3)cc2/C=C/c2csc(CO)n2)ccc1OCc1nc(-c2ccc(CC(=O)O)cc2)oc1C` [Example 365, (4-{4-[(4-{[(4-{(E)-2-[2-(hydroxymethyl)-1,3-thiazol-4-yl]ethenyl}-1-phenyl-1H-pyrazol-3-yl)oxy]methyl}-2-methoxyphenoxy)methyl]-5-methyl-1,3-oxazol-2-yl}phenyl)acetic acid] gave a melting point of 204 to 205 °C.
`CCOC(=O)Cc1ccc(-c2nc(COc3ccc(COc4nn(-c5ccccc5)cc4/C=C/c4coc(CC)n4)cc3OC)c(C)o2)cc1` [Example 366, ethyl {4-[4-({4-[({4-[(E)-2-(2-ethyl-1,3-oxazol-4-yl)ethenyl]-1-phenyl-1H-pyrazol-3-yl}oxy)methyl]-2-methoxyphenoxy}methyl)-5-methyl-1,3-oxazol-2-yl]phenyl}acetate] gave a melting point of 155 to 157 °C.
Work on `CCOC(=O)Cc1ccc(-c2nc(COc3ccc(COc4nn(-c5ccccc5)cc4/C=C/c4coc(C(C)C)n4)cc3OC)c(C)o2)cc1` [Example 367, ethyl {4-[4-({4-[({4-[(E)-2-(2-isopropyl-1,3-oxazol-4-yl)ethenyl]-1-phenyl-1H-pyrazol-3-yl}oxy)methyl]-2-methoxyphenoxy}methyl)-5-methyl-1,3-oxazol-2-yl]phenyl}acetate] yielded a melting point of 106 to 108 °C.
`CCOC(=O)Cc1ccc(-c2nc(COc3ccc(COc4nn(-c5ccccc5)cc4/C=C/c4coc(C(C)(C)C)n4)cc3OC)c(C)o2)cc1` [Example 368, ethyl {4-[4-({4-[({4-[(E)-2-(2-tert-butyl-1,3-oxazol-4-yl)ethenyl]-1-phenyl-1H-pyrazol-3-yl}oxy)methyl]-2-methoxyphenoxy}methyl)-5-methyl-1,3-oxazol-2-yl]phenyl}acetate] showed a melting point of 126 to 129 °C.
Compound `CCc1nc(/C=C/c2cn(-c3ccccc3)nc2OCc2ccc(OCc3nc(-c4cccc(C#N)c4)oc3C)c(OC)c2)cs1` [Example 372, 3-[4-({4-[({4-[(E)-2-(2-ethyl-1,3-thiazol-4-yl)ethenyl]-1-phenyl-1H-pyrazol-3-yl}oxy)methyl]-2-methoxyphenoxy}methyl)-5-methyl-1,3-oxazol-2-yl]benzonitrile] has a melting point of 138 to 140 °C.
For `CCc1nc(/C=C/c2cn(-c3ccccc3)nc2OCc2ccc(OCc3nc(-c4cccc(-c5noc(=O)[nH]5)c4)oc3C)c(OC)c2)cs1` [Example 375, 3-{3-[4-({4-[({4-[(E)-2-(2-ethyl-1,3-thiazol-4-yl)ethenyl]-1-phenyl-1H-pyrazol-3-yl}oxy)methyl]-2-methoxyphenoxy}methyl)-5-methyl-1,3-oxazol-2-yl]phenyl}-1,2,4-oxadiazol-5(4H)-one], the melting point was 139 to 140 °C.
For `CCc1nc(/C=C/c2cn(-c3ccccc3)nc2OCc2ccc(OCc3nc(-c4cccc(C(=O)NS(C)(=O)=O)c4)oc3C)c(OC)c2)cs1` [Example 376, 3-[4-({4-[({4-[(E)-2-(2-ethyl-1,3-thiazol-4-yl)ethenyl]-1-phenyl-1H-pyrazol-3-yl}oxy)methyl]-2-methoxyphenoxy}methyl)-5-methyl-1,3-oxazol-2-yl]-N-(methylsulfonyl)benzamide], the melting point was 211 to 213 °C.
In the case of `CCOC(=O)Cc1ccc(-c2nc(COc3ccc(COc4nn(-c5ccccc5)cc4/C=C/c4nc(CC)sc4C)cc3OC)c(C)o2)cc1` [Example 378, ethyl {4-[4-({4-[({4-[(E)-2-(2-ethyl-5-methyl-1,3-thiazol-4-yl)ethenyl]-1-phenyl-1H-pyrazol-3-yl}oxy)methyl]-2-methoxyphenoxy}methyl)-5-methyl-1,3-oxazol-2-yl]phenyl}acetate], the melting point is reported as 127 to 128 °C.
`CCOC(=O)Cc1ccc(-c2nc(COc3ccc(COc4nn(-c5ccccc5)cc4/C=C/c4nc(N5CCN(C(=O)OC(C)(C)C)CC5)sc4C)cc3OC)c(C)o2)cc1` [Example 380, tert-butyl 4-{4-[(E)-2-(3-{[4-({2-[4-(2-ethoxy-2-oxoethyl)phenyl]-5-methyl-1,3-oxazol-4-yl}methoxy)-3-methoxybenzyl]oxy}-1-phenyl-1H-pyrazol-4-yl)ethenyl]-5-methyl-1,3-thiazol-2-yl}piperazine-1-carboxylate] showed a melting point of 112 to 114 °C.
For `COc1cc(COc2nn(-c3ccccc3)cc2/C=C/c2nc(N3CCN(C(=O)OC(C)(C)C)CC3)sc2C)ccc1OCc1nc(-c2ccc(CC(=O)O)cc2)oc1C` [Example 381, [4-(4-{[4-({[4-((E)-2-{2-[4-(tert-butoxycarbonyl)piperazin-1-yl]-5-methyl-1,3-thiazol-4-yl}ethenyl)-1-phenyl-1H-pyrazol-3-yl]oxy}methyl)-2-methoxyphenoxy]methyl}-5-methyl-1,3-oxazol-2-yl)phenyl]acetic acid], the melting point was 119 to 120 °C.
For `CCOC(=O)Cc1ccc(-c2nc(COc3ccc(COc4nn(-c5ccccc5)cc4/C=C/c4nc(N5CCCCC5)sc4C)cc3OC)c(C)o2)cc1` [Example 382, ethyl [4-{4-[(2-methoxy-4-{[(4-{(E)-2-[5-methyl-2-(piperidin-1-yl)-1,3-thiazol-4-yl]ethenyl}-1-phenyl-1H-pyrazol-3-yl)oxy]methyl}phenoxy)methyl]-5-methyl-1,3-oxazol-2-yl}phenyl]acetate], the melting point was 131 to 132 °C.
Compound `COc1cc(COc2nn(-c3ccccc3)cc2/C=C/c2nc(N3CCCCC3)sc2C)ccc1OCc1nc(-c2ccc(CC(=O)O)cc2)oc1C` [Example 383, [4-{4-[(2-methoxy-4-{[(4-{(E)-2-[5-methyl-2-(piperidin-1-yl)-1,3-thiazol-4-yl]ethenyl}-1-phenyl-1H-pyrazol-3-yl)oxy]methyl}phenoxy)methyl]-5-methyl-1,3-oxazol-2-yl}phenyl]acetic acid] has a melting point of 146 to 148 °C.
In the case of `COc1cc(COc2nn(-c3ccccc3)cc2/C=C/c2nc(N3CCOCC3)sc2C)ccc1OCc1nc(-c2ccc(CC(=O)O)cc2)oc1C` [Example 385, [4-(4-{[2-methoxy-4-({[4-{(E)-2-[5-methyl-2-(morpholin-4-yl)-1,3-thiazol-4-yl]ethenyl}-1-phenyl-1H-pyrazol-3-yl]oxy}methyl)phenoxy]methyl)-5-methyl-1,3-oxazol-2-yl}phenyl]acetic acid], the melting point is reported as 171 to 173 °C.
Work on `CCc1nc(/C=C/c2cn(-c3ccccc3)nc2OCc2ccc(OCc3nc(-c4cccc(NS(C)(=O)=O)c4)oc3C)c(OC)c2)cs1` [Example 388, N-{3-[4-({4-[({4-[(E)-2-(2-ethyl-1,3-thiazol-4-yl)ethenyl]-1-phenyl-1H-pyrazol-3-yl}oxy)methyl]-2-methoxyphenoxy}methyl)-5-methyl-1,3-oxazol-2-yl]phenyl}methanesulfonamide] yielded a melting point of 113 to 115 °C.
Work on `CCc1nc(/C=C/c2cn(-c3ccccc3)nc2OCc2cc(OCc3nc(-c4ccc(CC(=O)O)cc4)oc3C)no2)cs1` [Example 390, (4-{4-[({5-[({4-[(E)-2-(2-ethyl-1,3-thiazol-4-yl)ethenyl]-1-phenyl-1H-pyrazol-3-yl}oxy)methyl]isoxazol-3-yl}oxy)methyl]-5-methyl-1,3-oxazol-2-yl}phenyl)acetic acid] yielded a melting point of 156 to 158 °C.
